Results: PubChem BioAssay AID1963979 (Molecular Pharmacology Branch, DTP, NCI, 2024)

Tested on: 361931-004-R-J1-PDC multicell spheroid viability
Test: Anticancer human tumor 361931-004-R-J1-PDC patient-derived colon adenocarcinoma cell line growth inhibition [PI3K]
Conditions: for IC50: curve of first compound; for viability, T/C: stronger effect = lower value; active means viability on the fitted dose curve at most 10% of control; inactive means the rest
Method in brief: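 High-throughput combination screen: PI3K inhibitors crossed with targeted small molecules on complex spheroids of tumor cells, HUVEC and MSCs at 37 degrees C, 5% CO2. Top concentration was at or near clinical Cmax (otherwise 10 microM), with half-log decrements.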

[1] = second compound 0.00316 µM, first compound 0.0316 µM
[2] = second compound 0.00316 µM, first compound 0.1 µM
[3] = second compound 0.00316 µM, first compound 0.316 µM
[4] = second compound 0.00316 µM, first compound 1 µM
[5] = second compound 0.00316 µM, first compound 3.16 µM
[6] = second compound 0.00316 µM, first compound 10 µM
[7] = second compound 0.01 µM, first compound 0.0316 µM
[8] = second compound 0.01 µM, first compound 0.1 µM
[9] = second compound 0.01 µM, first compound 0.316 µM
[10] = second compound 0.01 µM, first compound 1 µM
[11] = second compound 0.01 µM, first compound 3.16 µM
[12] = second compound 0.01 µM, first compound 10 µM
[13] = second compound 0.0316 µM, first compound 0.0316 µM
[14] = second compound 0.0316 µM, first compound 0.1 µM
[15] = second compound 0.0316 µM, first compound 0.316 µM
[16] = second compound 0.0316 µM, first compound 1 µM
[17] = second compound 0.0316 µM, first compound 3.16 µM
[18] = second compound 0.0316 µM, first compound 10 µM
[19] = second compound 0.1 µM, first compound 0.0316 µM
[20] = second compound 0.1 µM, first compound 0.1 µM
[21] = second compound 0.1 µM, first compound 0.316 µM
[22] = second compound 0.1 µM, first compound 1 µM
[23] = second compound 0.1 µM, first compound 3.16 µM
[24] = second compound 0.1 µM, first compound 10 µM
[25] = second compound 0.316 µM, first compound 0.0316 µM
[26] = second compound 0.316 µM, first compound 0.1 µM
[27] = second compound 0.316 µM, first compound 0.316 µM
[28] = second compound 0.316 µM, first compound 1 µM
[29] = second compound 0.316 µM, first compound 3.16 µM
[30] = second compound 0.316 µM, first compound 10 µM
[31] = second compound 1 µM, first compound 0.0316 µM
[32] = second compound 1 µM, first compound 0.1 µM
[33] = second compound 1 µM, first compound 0.316 µM
[34] = second compound 1 µM, first compound 1 µM
[35] = second compound 1 µM, first compound 3.16 µM
[36] = second compound 1 µM, first compound 10 µM
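Further: spheroids exposed to agents for seven days before readout.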

C#Cc1c(F)ccc2cc(O)cc(-c3ncc4c(N5CC6CCC(C5)N6)nc(OCC56CCCN5CC(F)C6)nc4c3F)c12 (stereo not drawn) + COc1c(OCCCN2CCOCC2)ccc2c3n(c(=NC(=O)c4cnc(N)nc4)nc12)CCN3
active: viability, T/C [36] 8.02%
5.65 µM: IC50 (second compound 0.1 µM)
inactive: viability, T/C [1] 105% | viability, T/C [2] 108% | viability, T/C [3] 98.1% | viability, T/C [4] 91.9% | viability, T/C [5] 101% | viability, T/C [6] 84.9% | viability, T/C [7] 107% | viability, T/C [8] 106% | viability, T/C [9] 99.1% | viability, T/C [10] 91% | viability, T/C [11] 88.8% | viability, T/C [12] 73% | viability, T/C [13] 91.5% | viability, T/C [14] 96.2% | viability, T/C [15] 85.9% | viability, T/C [16] 72.5% | viability, T/C [17] 67.2% | viability, T/C [18] 51.5% | viability, T/C [19] 80.6% | viability, T/C [20] 69.9% | viability, T/C [21] 68.5% | viability, T/C [22] 61.8% | viability, T/C [23] 54.6% | viability, T/C [24] 45.7% | viability, T/C [25] 54.5% | viability, T/C [26] 51.9% | viability, T/C [27] 42.3% | viability, T/C [28] 37.3% | viability, T/C [29] 33.6% | viability, T/C [30] 23% | viability, T/C [31] 18.4% | viability, T/C [32] 17.6% | viability, T/C [33] 14.9% | viability, T/C [34] 12.1% | viability, T/C [35] 9.63%
< 0.0316 µM: IC50 (second compound 1 µM)
> 10 µM: IC50 (second compound 0.00316 µM) | IC50 (second compound 0.01 µM) | IC50 (second compound 0.0316 µM)
0.101 µM: IC50 (second compound 0.316 µM)

C=CC(=O)N1CCN(c2nc(=O)n(-c3c(C)ccnc3C(C)C)c3nc(-c4c(O)cccc4F)c(F)cc23)C(C)C1 (stereo not drawn) + COc1c(OCCCN2CCOCC2)ccc2c3n(c(=NC(=O)c4cnc(N)nc4)nc12)CCN3
0.0316 µM: IC50 (second compound 0.316 µM)
> 10 µM: IC50 (second compound 0.00316 µM) | IC50 (second compound 0.01 µM) | IC50 (second compound 0.0316 µM) | IC50 (second compound 0.1 µM)
< 0.0316 µM: IC50 (second compound 1 µM)
inactive: viability, T/C [1] 97.7% | viability, T/C [2] 100% | viability, T/C [3] 100% | viability, T/C [4] 98.7% | viability, T/C [5] 99.9% | viability, T/C [6] 90.1% | viability, T/C [7] 98% | viability, T/C [8] 95% | viability, T/C [9] 92.6% | viability, T/C [10] 94.4% | viability, T/C [11] 103% | viability, T/C [12] 89% | viability, T/C [13] 94.6% | viability, T/C [14] 89.5% | viability, T/C [15] 90.6% | viability, T/C [16] 94.7% | viability, T/C [17] 91.6% | viability, T/C [18] 82.4% | viability, T/C [19] 83.8% | viability, T/C [20] 80.3% | viability, T/C [21] 77.8% | viability, T/C [22] 76% | viability, T/C [23] 78.8% | viability, T/C [24] 54.9% | viability, T/C [25] 48.7% | viability, T/C [26] 49.8% | viability, T/C [27] 47.1% | viability, T/C [28] 39.5% | viability, T/C [29] 51.1% | viability, T/C [30] 32.8% | viability, T/C [31] 20.4% | viability, T/C [32] 22.1% | viability, T/C [33] 15.4% | viability, T/C [34] 20.2% | viability, T/C [35] 18.3% | viability, T/C [36] 12.4%

CC(Cn1ccc(-c2ccc(C#N)c(Cl)c2)n1)NC(=O)c1cc(C(C)O)[nH]n1 (stereo not drawn) + COc1c(OCCCN2CCOCC2)ccc2c3n(c(=NC(=O)c4cnc(N)nc4)nc12)CCN3
inactive: viability, T/C [1] 103% | viability, T/C [2] 92.1% | viability, T/C [3] 97.7% | viability, T/C [4] 103% | viability, T/C [5] 103% | viability, T/C [6] 98% | viability, T/C [7] 102% | viability, T/C [8] 102% | viability, T/C [9] 99.1% | viability, T/C [10] 93.5% | viability, T/C [11] 98.1% | viability, T/C [12] 95% | viability, T/C [13] 95.1% | viability, T/C [14] 94.7% | viability, T/C [15] 83.5% | viability, T/C [16] 93.4% | viability, T/C [17] 89.4% | viability, T/C [18] 78% | viability, T/C [19] 81.5% | viability, T/C [20] 83.2% | viability, T/C [21] 76.8% | viability, T/C [22] 70.3% | viability, T/C [23] 78% | viability, T/C [24] 62.1% | viability, T/C [25] 51.4% | viability, T/C [26] 49.5% | viability, T/C [27] 47.6% | viability, T/C [28] 44% | viability, T/C [29] 42.4% | viability, T/C [30] 30.6% | viability, T/C [31] 20.5% | viability, T/C [32] 19% | viability, T/C [33] 15.8% | viability, T/C [34] 19.5% | viability, T/C [35] 16.7% | viability, T/C [36] 11.9%
< 0.0316 µM: IC50 (second compound 1 µM)
0.0487 µM: IC50 (second compound 0.316 µM)
> 10 µM: IC50 (second compound 0.00316 µM) | IC50 (second compound 0.01 µM) | IC50 (second compound 0.0316 µM) | IC50 (second compound 0.1 µM)

CC1(C)CCC(Nc2ncc(C(F)(F)F)c(-c3c[nH]c4c(P(C)(C)=O)c(C#N)ccc34)n2)CN1 (stereo not drawn) + COc1c(OCCCN2CCOCC2)ccc2c3n(c(=NC(=O)c4cnc(N)nc4)nc12)CCN3
5.54 µM: IC50 (second compound 0.00316 µM)
< 0.0316 µM: IC50 (second compound 0.316 µM) | IC50 (second compound 1 µM)
active: viability, T/C [24] 8.34% | viability, T/C [30] 5.6%
4.87 µM: IC50 (second compound 0.01 µM)
3.68 µM: IC50 (second compound 0.1 µM)
inactive: viability, T/C [1] 85.5% | viability, T/C [2] 94.7% | viability, T/C [3] 83.8% | viability, T/C [4] 92.7% | viability, T/C [5] 85.1% | viability, T/C [6] 12.9% | viability, T/C [7] 92.4% | viability, T/C [8] 92.7% | viability, T/C [9] 82% | viability, T/C [10] 83.1% | viability, T/C [11] 73.6% | viability, T/C [12] 12.7% | viability, T/C [13] 80.7% | viability, T/C [14] 72.5% | viability, T/C [15] 67.7% | viability, T/C [16] 66.3% | viability, T/C [17] 67.1% | viability, T/C [18] 12% | viability, T/C [19] 63.4% | viability, T/C [20] 56.6% | viability, T/C [21] 59.3% | viability, T/C [22] 51.6% | viability, T/C [23] 56.6% | viability, T/C [25] 39.4% | viability, T/C [26] 49.5% | viability, T/C [27] 43.8% | viability, T/C [28] 44.2% | viability, T/C [29] 42.6% | viability, T/C [31] 20.4% | viability, T/C [32] 18.4% | viability, T/C [33] 19.9% | viability, T/C [34] 24.3% | viability, T/C [35] 19.9% | viability, T/C [36] 2.05%
4.49 µM: IC50 (second compound 0.0316 µM)
